# Measured values from US20120065228A1, “COMPOSITIONS AND METHODS FOR TREATING, CONTROLLING, REDUCING, OR AMELIORATING OCULAR INFLAMMATORY WITH LOWER RISK OF INCREASED INTRAOCULAR PRESSURE” (priority 2007, published 2012).
# Key:
# Format in all cases: in vivo, human
# ocular signs = assay: Clinical dose ranging study after cataract surgery: ocular signs (biomicroscopy)
# Text: (§1) There were 8 treatment groups in this study, consisting of three drug doses, vehicle and three dosing frequencies (see also Table 4-1): • Group A: 1% BOL-303242-X ophthalmic suspension, two times per day (BID) • Group B: 2% BOL-303242-X ophthalmic suspension, one time per day (QD) • Group C: 2% BOL-303242-X ophthalmic suspension, BID • Group D: 2% BOL-303242-X ophthalmic suspension, four times per day (QID) • Group E: 3% BOL-303242-X ophthalmic suspension, QD • Group F: 3% BOL-303242-X ophthalmic suspension, BID • Group G: 3% BOL-303242-X ophthalmic suspension, QID • Group H: Vehicle for BOL-303242-X (divided equally into QID, BID, and QD)
# (§2) Subjects self-administered study drug, instilling 1 to 2 drops of study drug into the study eye: QID at approximately 4 hour intervals, BID at approximately 12 hour intervals, or QD once in the morning, for 14 days. The initial dose occurred in the clinic at Visit 3 and the final dose was on the day before Visit 6 (postoperative Day 15±1 day). Subjects were examined and evaluated according to the following schedule:
# (§3) Visit 1 (screening), Visit 2 (cataract surgery), Visit 3 (postoperative Day 1), Visit 4 (postoperative Day 3±1 day), Visit 5 (postoperative Day 8±1 day), Visit 6 (postoperative Day 15±1 day), Visit 7 (postoperative Day 18±1 day). Subject assessments included adverse events (AEs), concomitant medications, ocular symptoms, pinholed Snellen visual acuity (VA), intraocular pressure (IOP), ocular signs (biomicroscopy), fundoscopy, and study drug drop sensation. In addition, subject diaries were collected and reviewed for accuracy and treatment compliance.
# Safety: The safety endpoints in this study were: incidence of AEs, change in IOP, ocular signs (biomicroscopy), Snellen VA, fundoscopy, study drug drop sensation assessment.
# [1] = system: inflammation following cataract surgery; assay: Clinical dose ranging study after cataract surgery: resolution of anterior chamber (AC) cells and flare
# Text: as §1
# (§4) At Visit 3 (postoperative Day 1, 18 to 34 hours following surgery), subjects meeting all eligibility criteria were randomized to one of the treatment groups continuing to be studied, including vehicle, in a 1:1 ratio.
# as §2, §3
# Among other criteria for inclusion in this study, subjects were those who: • were to be at least 18 years of age on the date the informed consent form (“ICF”) was signed and with the capacity to voluntarily provide consent; • were candidates for routine, uncomplicated cataract surgery (phacoemulsification with posterior chamber intraocular lens (“IOL”) implantation, not combined with any other surgery) in the study eye; • in the Investigator's opinion, had potential postoperative pinholed Snellen visual acuity (“VA”) of at least 20/200 or pinholed Decimal VA of 0.1 in the study eye; • had undergone routine, uncomplicated cataract surgery (phacoemulsification with posterior chamber IOL implantation, not combined with any other surgery) in the study eye; and • had ≧Grade 2 anterior chamber (“AC”) cells in the study eye.
# Primary Efficacy: The primary efficacy endpoint for this study was the proportion of subjects with complete resolution of AC cells at Visit 5 (postoperative Day 8). Complete resolution of AC cells is defined as Grade 0 cells.
# (§5) Secondary Efficacy: The secondary efficacy endpoints for this study were the proportions of subjects with Grade 0 pain at Visit 5 (postoperative Day 8) and at each visit, complete resolution of AC cells at each visit, complete resolution of AC cells and flare at each visit, complete resolution of AC flare at each visit, change from baseline to each follow-up visit in AC cells and AC flare combined and separately, ocular symptoms.
# [2] = system: pain following cataract surgery; assay: Clinical dose ranging study after cataract surgery: Grade 0 pain
# Text: as §1, §4, §2, §3, §5
# [3] = 1% BID, Visit 5 (postoperative Day 8)
# [4] = 1% BID, Visit 6 (postoperative Day 15)
# [5] = 1% BID, Visit 7 (postoperative Day 18)
# [6] = 2% BID, Visit 6 (postoperative Day 15)
# [7] = 2% QD, Visit 5 (postoperative Day 8)
# [8] = 2% QD, Visit 6 (postoperative Day 15)
# [9] = 2% QID, Visit 5 (postoperative Day 8)
# [10] = 2% QID, Visit 6 (postoperative Day 15)
# [11] = 2% QID, Visit 7 (postoperative Day 18)
# [12] = 3% BID, Visit 4 (postoperative Day 3)
# [13] = 3% BID, Visit 5 (postoperative Day 8)
# [14] = 3% BID, Visit 6 (postoperative Day 15)
# [15] = 3% BID, Visit 7 (postoperative Day 18)
# [16] = 3% QD, Visit 4 (postoperative Day 3)
# [17] = 3% QD, Visit 5 (postoperative Day 8)
# [18] = 3% QD, Visit 6 (postoperative Day 15)
# [19] = 3% QD, Visit 7 (postoperative Day 18)
# [20] = 3% QID, Visit 5 (postoperative Day 8)
# [21] = 3% QID, Visit 6 (postoperative Day 15)
# [22] = 3% QID, Visit 7 (postoperative Day 18)
smiles,measurement,setting,value
Cc1ccc2c(NCC(O)(CC(C)(C)c3cc(F)cc4c3OCC4)C(F)(F)F)cccc2n1 (stereo not shown) [BOL-303242-X],Proportions of subjects with increases in scores for AC cells,"ocular signs; Visit 4 (2% QD) and Visit 5 (2% QID, 3% QID)",statistically significantly lower proportions
same,Proportions of subjects with increases in scores for ciliary flush,"ocular signs; Visit 4 (2% QD), Visit 5 (1% BID, 2% QID, 3% BID, 3% QID), and Visit 7 (2% QID and 3% QD)",statistically significantly lower proportions
same,Proportions of subjects with increases in scores for AC flare,ocular signs; Visit 4 (2% QID) and Visit 5 (3% BID),statistically significantly lower proportions
same,Proportions of subjects with increases in scores for chemosis,ocular signs; Visit 4 (3% BID),statistically significantly lower proportions
same,Proportions of subjects with increases in scores for palpebral conjunctival injection,"ocular signs; Visit 5 (1% BI), 3% BID)",statistically significantly lower proportions
same,Proportions of subjects with increases in scores for bulbar conjunctival injection,"ocular signs; Visit 5 (2% QID, 3% BID, 3% QID)",statistically significantly lower proportions
same,"Proportions of subjects with increases in scores for anterior vitreous haze, corneal edema, corneal staining, eyelid erythema, hyphema, and posterior synechiae",ocular signs; any dose groups at any postoperative visits,No statistically significant differences
same,Proportion of subjects with complete resolution of AC flare,"[1]; 1% BID (printed 196 BID), Visit 7 (postoperative Day 18)",56.7%
same,Proportion of subjects with complete resolution of AC cells,[1]; [3],21.7%
same,Proportion of subjects with complete resolution of AC cells and flare combined,[1]; [3],20.0%
same,Proportion of subjects with complete resolution of AC flare,[1]; [3],41.7%
same,Proportion of subjects with complete resolution of AC flare,[1]; [4],66.7%
same,Proportion of subjects with complete resolution of AC cells,[1]; [5],41.7%
same,Proportion of subjects with complete resolution of AC cells and flare combined,[1]; [5],41.7%
same,Proportion of subjects with complete resolution of AC flare,"[1]; 2% BID, Visit 5 (postoperative Day 8)",50.0%
same,Proportion of subjects with complete resolution of AC flare,[1]; [6],60.7%
same,Proportion of subjects with complete resolution of AC cells,[1]; [7],21.4%
same,Proportion of subjects with complete resolution of AC cells and flare combined,[1]; [7],21.4%
same,Proportion of subjects with complete resolution of AC flare,[1]; [7],42.9%
same,Proportion of subjects with complete resolution of AC cells and flare combined,[1]; [8],35.7%
same,Proportion of subjects with complete resolution of AC flare,"[1]; 2% QID (printed 2% ND), Visit 6 (postoperative Day 15)",66.7%
same,Proportion of subjects with complete resolution of AC cells,[1]; [9],28.3%
same,Proportion of subjects with complete resolution of AC cells and flare combined,[1]; [9],26.7%
same,Proportion of subjects with complete resolution of AC flare,[1]; [9],51.7%
same,Proportion of subjects with complete resolution of AC cells,[1]; [10],43.3%
same,Proportion of subjects with complete resolution of AC cells and flare combined,[1]; [10],41.7%
same,Proportion of subjects with complete resolution of AC cells,[1]; [11],53.396%
same,Proportion of subjects with complete resolution of AC cells and flare combined,[1]; [11],53.3%
same,Proportion of subjects with complete resolution of AC flare,[1]; [11],66.7%
same,Proportion of subjects with complete resolution of AC flare,[1]; [12],38.3%
same,Proportion of subjects with complete resolution of AC cells,[1]; [13],25.0%
same,Proportion of subjects with complete resolution of AC cells and flare combined,[1]; [13],23.3%
same,Proportion of subjects with complete resolution of AC flare,[1]; [13],51.7%
same,Proportion of subjects with complete resolution of AC cells,[1]; [14],38.3%
same,Proportion of subjects with complete resolution of AC cells and flare combined,[1]; [14],38.3%
same,Proportion of subjects with complete resolution of AC flare,[1]; [14],51.7%
same,Proportion of subjects with complete resolution of AC cells,[1]; [15],43.3%
same,Proportion of subjects with complete resolution of AC cells and flare combined,[1]; [15],43.3%
same,Proportion of subjects with complete resolution of AC flare,[1]; [15],56.7%
same,Proportion of subjects with complete resolution of AC flare,[1]; [16],35.6%
same,Proportion of subjects with complete resolution of AC cells,[1]; [17],25.4%
same,Proportion of subjects with complete resolution of AC cells and flare combined,[1]; [17],23.7%
same,Proportion of subjects with complete resolution of AC flare,[1]; [17],55.9%
same,Proportion of subjects with complete resolution of AC cells,[1]; [18],47.5%
same,Proportion of subjects with complete resolution of AC cells and flare combined,[1]; [18],47.5%
same,Proportion of subjects with complete resolution of AC flare,[1]; [18],66.1%
same,Proportion of subjects with complete resolution of AC cells,[1]; [19],47.5%
same,Proportion of subjects with complete resolution of AC cells and flare combined,[1]; [19],47.5%
same,Proportion of subjects with complete resolution of AC flare,[1]; [19],57.6%
same,Proportion of subjects with complete resolution of AC cells,[1]; [20],30.0%
same,Proportion of subjects with complete resolution of AC cells and flare combined,[1]; [20],30.0%
same,Proportion of subjects with complete resolution of AC flare,[1]; [20],55.0%
same,Proportion of subjects with complete resolution of AC cells,[1]; [21],38.3%
same,Proportion of subjects with complete resolution of AC cells and flare combined,[1]; [21],36.7%
same,Proportion of subjects with complete resolution of AC flare,[1]; [21],61.7%
same,Proportion of subjects with complete resolution of AC cells,[1]; [22],46.7%
same,Proportion of subjects with complete resolution of AC cells and flare combined,[1]; [22],45.0%
same,Proportion of subjects with complete resolution of AC flare,[1]; [22],58.3%
same,"Anterior chamber cells, change from baseline, compared to vehicle","[1]; Visit 4: 1% BID, 2% QID, 3% QD, 3% QID",Statistically significant mean decreases
same,"Anterior chamber cells, change from baseline, compared to vehicle","[1]; Visit 5: 1% BID, 2% QD, 2% QID, 3% QD, 3% BID, 3% QID",Statistically significant mean decreases
same,"Anterior chamber cells, change from baseline, compared to vehicle","[1]; Visit 6: 1% BID, 2% QID, QD, 3% BID, 3% QID",Statistically significant mean decreases
same,"Anterior chamber cells, change from baseline, compared to vehicle","[1]; Visit 7: 1% BID. 2% QD, 2% QID, QD, 3% BID, 3% QID",Statistically significant mean decreases
same,Proportion of subjects with Grade 0 pain,[2]; [4],61.7%
same,Proportion of subjects with Grade 0 pain,[2]; [5],61.7%
same,Proportion of subjects with Grade 0 pain,[2]; [6],57.1%
same,Proportion of subjects with Grade 0 pain,"[2]; 2% BID, Visit 7 (postoperative Day 18)",53.6%
same,Proportion of subjects with Grade 0 pain,[2]; [8],57.1%
same,Proportion of subjects with Grade 0 pain,"[2]; 2% QD, Visit 7 (postoperative Day 18)",57.1%
same,Proportion of subjects with Grade 0 pain,"[2]; 2% QID (printed 296 QID), Visit 5 (postoperative Day 8)",78.396%
same,Proportion of subjects with Grade 0 pain,"[2]; 2% QID, Visit 4 (postoperative Day 3)",73.3%
same,Proportion of subjects with Grade 0 pain,[2]; [10],75.0%
same,Proportion of subjects with Grade 0 pain,[2]; [11],71.7%
same,Proportion of subjects with Grade 0 pain,[2]; [12],70.0%
same,Proportion of subjects with Grade 0 pain,[2]; [13],75.0%
same,Proportion of subjects with Grade 0 pain,[2]; [14],68.3%
same,Proportion of subjects with Grade 0 pain,[2]; [16],81.4%
same,Proportion of subjects with Grade 0 pain,[2]; [17],71.2%
same,Proportion of subjects with Grade 0 pain,[2]; [18],71.2%
same,Proportion of subjects with Grade 0 pain,[2]; [19],66.1%
same,Proportion of subjects with Grade 0 pain,"[2]; 3% QID, Visit 4 (postoperative Day 3)",66.7%
same,Proportion of subjects with Grade 0 pain,[2]; [20],70.0%
same,Proportion of subjects with Grade 0 pain,[2]; [21],70.0%
